According to paper PMC3089437 (2011):

Molecular target: mouse CB2 (mCB2) (Mus musculus, UniProt P47936)
Assay type: binding

Sequence of mouse CB2 (mCB2) (P47936 whole entry): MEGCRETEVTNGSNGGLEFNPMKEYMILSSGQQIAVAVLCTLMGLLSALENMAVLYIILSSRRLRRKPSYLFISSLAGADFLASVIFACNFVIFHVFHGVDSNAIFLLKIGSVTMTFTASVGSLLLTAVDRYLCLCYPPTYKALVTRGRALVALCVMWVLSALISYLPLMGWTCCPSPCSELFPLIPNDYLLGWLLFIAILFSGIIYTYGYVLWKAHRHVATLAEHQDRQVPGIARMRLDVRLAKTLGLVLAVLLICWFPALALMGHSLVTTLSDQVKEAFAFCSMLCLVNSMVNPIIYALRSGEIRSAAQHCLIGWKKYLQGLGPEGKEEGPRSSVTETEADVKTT

Compound: CCCCCCC(C)(C)c1cc(O)c2c(c1)oc(=O)c1ccc(OC)cc12 [AM1710, 3-(1′,1′-dimethylheptyl)-1-hydroxy-9-methoxy-6H-benzo[c]chromene-6-one]
- Ki: 17 nM
